Like-named read-outs stand apart in the source and are kept apart here.
What was measured:
BcX E78Q [1] = molecular target: T1, BcX E78Q (Niallia circulans, UniProt P09850, E106Q); assay: NMR titration (1H-15N HSQC) of 15N-labeled BcX E78Q with ligand; format: binding, Bacillus circulans
T1 construct: made in house
Protocol: (§1) Solutions of ^15N-labeled BcX E78Q and BcX E78Q-Y69A (100 µM) were titrated with Dia-X3 and Para-X3. Concentrations of up to 50 mM for Dia-X3 and 8 mM for Para-X3 were used. Samples were prepared separately, and each contained 25 mM sodium acetate buffer (pH 5.8) and 10% D2O for lock. ^1H − ^15N HSQC spectra were obtained on a Bruker HD Avance 850 MHz spectrometer with a cryoprobe, at 20 °C, using 3 mm tubes. In one experiment Para-X3 was reduced in the NMR tube with ascorbic acid to study the effect of reduction in a single sample. The assignment, processing, and analysis of the HSQC spectra were conducted as detailed before (Saberi et al. [2024]).
(§2) Spectra were processed with Topspin (Bruker) and analyzed using CCPN Analysis v.2.4.2 (Vranken et al. [2005]). The weighted average chemical shift perturbations (CSP) for backbone amides (Δδavg) was calculated according to Eq. 1 (modified after Williamson [2013]):1 Δδavg=δH^2+δN/25^2 where δH and δN are the CSPs for ^1H and ^15N nuclei. Titration data were fitted to a 1:1 model Eq. (2), which simplifies to (3) when the ligand concentration [Lt] is much higher than the protein concentration [Pt] (Arai et al. [2012]; Wang et al. [1996]; Williamson [2013]):2 Δδobs=ΔδmaxKD+[Pt]+[Lt]-KD+[Pt]+[Lt]^2-4[Pt][Lt]/2[Pt] 3 Δδobs=[Lt]/KD+[Lt]Δδmax where Δδobs and Δδmax are the observed and maximal change in the chemical shift and KD is the dissociation constant. The error in KD was estimated by manually adjusting KD to higher and lower values and observing the range over which the fit of the CSP data to the model remained within the peak picking error bars of the CSPs.
(§3) The fractional populations of the free and bound states were calculated using the peak height (I) as follows:4 ffree=Ifree/Ifree+Ibound,fbound=Ibound/Ifree+Ibound
(§4) Here, ffree and fbound represent the fractions of the protein in the free and bound states. The uncertainties in the peak heights represent the noise level in the spectra. The dissociation constant KD was determined using:5 KD=ffree.Lfree/fbound
(§5) In this equation, [Lfree] represents the concentration of the free ligand, which was approximated as the total ligand concentration [Ltotal] because the ligand was in large excess relative to the protein. The mean KD value was determined by averaging KD values across the used residues.

BcX E78Q-Y69A [2] = molecular target: T2, BcX E78Q-Y69A (Niallia circulans, UniProt P09850, E106Q/Y97A); assay: NMR titration (1H-15N HSQC) of 15N-labeled BcX E78Q-Y69A with ligand; format: binding, Bacillus circulans
T2 construct: made in house
Protocol: as §1, §2, §3, §4, §5

BcX E78Q [3] = molecular target: T1, BcX E78Q; settings: ref Saberi et al. [2024], cited from earlier work
BcX E78Q-Y69A [4] = molecular target: T2, BcX E78Q-Y69A; settings: ref Saberi et al. [2024], cited from earlier work
[5] = α-helix region, Para-X3 vs Dia-X3
[6] = α-helix region, global fit of CSP, pH 5.8, 20 °C, read-out: Dissociation constant KD, helix
[7] = secondary binding site, read-out: Dissociation constant KD, SBS

| SMILES | Kd (BcX E78Q [1]; active site, CSP of amides, up to 8 mM ligand, NB = no binding, read-out: Dissociation constant KD, active site) [mM] | Binding in the active site cavity (CSP or intensity loss of amide resonances) (BcX E78Q [1]; inside active site cleft, up to 8 mM ligand) | Affinity for helix region, fold higher than for the diamagnetic equivalent (Dia-X3) (BcX E78Q [1]; [5]) [fold] | Kd (BcX E78Q [1]; [6]) [mM] | CSPs or PRE for amides in the inner palm region (active site) (BcX E78Q-Y69A [2]; 8 mM ligand) | Kd (BcX E78Q-Y69A [2]; active site, fit of CSP curves (fast exchange), NB = no binding, read-out: Dissociation constant KD, active site) [mM] | Affinity for helix region, fold higher than for the diamagnetic equivalent (Dia-X3) (BcX E78Q-Y69A [2]; [5]) [fold] | Kd (BcX E78Q-Y69A [2]; [6]) [mM] | Kd (BcX E78Q [3]; active site, read-out: Dissociation constant KD, active site) [mM] | Kd (BcX E78Q [3]; [7]) [mM] | Kd (BcX E78Q-Y69A [4]; active site, aglycon subsites, 2:1 model, read-out: Dissociation constant KD2, active site) [mM] | Kd (BcX E78Q-Y69A [4]; active site, glycon subsites, 2:1 model, read-out: Dissociation constant KD1, active site) [mM] | Kd (BcX E78Q-Y69A [4]; [7]) [mM] |
| --- | --- | --- | --- | --- | --- | --- | --- | --- | --- | --- | --- | --- | --- |
| CC1(C)CC(O[C@@H]2OC[C@@H](O[C@@H]3OC[C@@H](O[C@@H]4OC[C@@H](O)[C@H](O)[C@H]4O)[C@H](O)[C@H]3O)[C@H](O)[C@H]2O)CC(C)(C)N1[O] [Para-X3, β-D-xylopyranosyl-(1 → 4)-β-D-xylopyranosyl-(1 → 4)-1-TEMPOL-β-D-xylopyranoside] | > 8 | absent or very weak | 2.7 | 1.6 | No significant CSPs or PRE | > 8 | 1.4 | 2.4 |  |  |  |  |  |
| OC1OC[C@@H](O[C@@H]2OC[C@@H](O[C@@H]3OC[C@@H](O)[C@H](O)[C@H]3O)[C@H](O)[C@H]2O)[C@H](O)[C@H]1O (some centres unmarked) [X3, xylotriose] |  |  |  |  |  |  |  |  | 5.7 | 23 | 24 | 15 | 22 |
| OC1OC[C@@H](O[C@@H]2OC[C@@H](O[C@@H]3OC[C@@H](O[C@@H]4OC[C@@H](O)[C@H](O)[C@H]4O)[C@H](O)[C@H]3O)[C@H](O)[C@H]2O)[C@H](O)[C@H]1O (some centres unmarked) [X4] |  |  |  |  |  |  |  |  |  | 2.3 |  |  |  |

— article PMC12078400, “Terminal spin labeling of xylotriose strongly affects interactions in the active site of xylanase BcX” (Journal of Biomolecular Nmr, 2025)
